Laboratory results: patent US20220388964A1 (HiberCell, Inc., priority 2019, published 2022)

Biological target: GCN2 (Homo sapiens, UniProt Q9P2K8)
Experiment: TR-FRET biochemical assay for inhibition of GCN2 (Example 106, for Example 1-4BB)

Sequence of GCN2 (Q9P2K8 whole entry): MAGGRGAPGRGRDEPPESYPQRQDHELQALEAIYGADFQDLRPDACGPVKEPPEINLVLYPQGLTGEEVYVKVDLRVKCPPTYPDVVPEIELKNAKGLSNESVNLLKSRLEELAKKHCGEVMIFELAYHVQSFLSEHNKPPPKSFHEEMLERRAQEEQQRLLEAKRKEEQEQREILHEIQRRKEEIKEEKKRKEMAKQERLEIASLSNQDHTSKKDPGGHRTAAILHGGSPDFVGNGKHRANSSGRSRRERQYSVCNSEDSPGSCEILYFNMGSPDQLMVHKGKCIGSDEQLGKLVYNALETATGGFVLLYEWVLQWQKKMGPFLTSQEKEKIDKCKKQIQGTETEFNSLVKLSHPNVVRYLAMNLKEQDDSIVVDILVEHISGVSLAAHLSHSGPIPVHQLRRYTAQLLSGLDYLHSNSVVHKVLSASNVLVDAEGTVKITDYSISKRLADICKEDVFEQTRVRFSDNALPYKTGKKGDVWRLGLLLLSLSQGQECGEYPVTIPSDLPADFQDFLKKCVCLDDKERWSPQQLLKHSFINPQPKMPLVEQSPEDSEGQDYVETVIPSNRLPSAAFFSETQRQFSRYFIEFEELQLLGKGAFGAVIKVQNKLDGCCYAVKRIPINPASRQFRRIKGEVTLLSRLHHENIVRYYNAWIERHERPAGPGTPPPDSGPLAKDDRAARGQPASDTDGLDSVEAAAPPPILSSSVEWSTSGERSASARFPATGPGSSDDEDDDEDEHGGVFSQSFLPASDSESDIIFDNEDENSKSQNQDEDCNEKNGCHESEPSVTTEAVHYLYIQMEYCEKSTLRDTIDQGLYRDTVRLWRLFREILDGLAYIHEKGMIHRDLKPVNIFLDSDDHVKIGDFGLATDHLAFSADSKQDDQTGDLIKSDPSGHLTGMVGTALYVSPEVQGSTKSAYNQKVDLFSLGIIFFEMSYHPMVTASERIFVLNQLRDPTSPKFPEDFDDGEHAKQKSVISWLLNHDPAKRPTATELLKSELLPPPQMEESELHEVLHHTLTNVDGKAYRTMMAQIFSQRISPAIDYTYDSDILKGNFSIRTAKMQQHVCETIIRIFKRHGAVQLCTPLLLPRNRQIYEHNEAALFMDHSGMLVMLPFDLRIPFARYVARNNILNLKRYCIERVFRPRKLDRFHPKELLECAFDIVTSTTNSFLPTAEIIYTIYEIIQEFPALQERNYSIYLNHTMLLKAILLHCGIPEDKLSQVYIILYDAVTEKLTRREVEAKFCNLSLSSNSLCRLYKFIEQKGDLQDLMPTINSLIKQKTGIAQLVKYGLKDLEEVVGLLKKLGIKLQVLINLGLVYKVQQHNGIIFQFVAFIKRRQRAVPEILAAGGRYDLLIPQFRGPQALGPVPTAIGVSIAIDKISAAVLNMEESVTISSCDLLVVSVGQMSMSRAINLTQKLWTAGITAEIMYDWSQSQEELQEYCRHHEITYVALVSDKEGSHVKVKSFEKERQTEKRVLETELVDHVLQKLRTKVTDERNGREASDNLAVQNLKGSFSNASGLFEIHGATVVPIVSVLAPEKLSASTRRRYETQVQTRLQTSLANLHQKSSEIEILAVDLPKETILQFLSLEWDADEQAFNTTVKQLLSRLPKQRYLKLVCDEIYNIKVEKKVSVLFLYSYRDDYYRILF

Compound | IC50 (Table 9) [µM] | IC50 (Table 8) [µM]
Cc1ccc(S(=O)(=O)Nc2ccc(F)c(-c3ccc4c(C(=O)Nc5cnn(C)c5)n[nH]c4c3F)c2F)c(C)n1 [Example 3DH, 6-(3-((2,6-dimethylpyridine)-3-sulfonamido)-2,6-difluoro-phenyl)-7-fluoro-N-(1-methyl-1H-pyrazol-4-yl)-1H-indazole-3-carboxamide] | < 0.5 | 
COc1ncc(Cl)cc1S(=O)(=O)Nc1ccc(F)c(-c2ccc3c(-c4ncc[nH]4)n[nH]c3c2F)c1 [Example 2J, 5-chloro-N-(4-fluoro-3-(7-fluoro-3-(1H-imidazol-2-yl)-1H-indazol-6-yl)phenyl)-2-methoxy-pyridine-3-sulfonamide] |  | < 0.5
COc1ncc(Cl)cc1S(=O)(=O)Nc1cccc(-c2ccc3c(-c4ncc[nH]4)n[nH]c3c2F)c1Cl [Example 2O, 5-chloro-N-(2-chloro-3-(7-fluoro-3-(1H-imidazol-2-yl)-1H-indazol-6-yl)phenyl)-2-methoxy-pyridine-3-sulfonamide] |  | < 0.5
COc1ncc(F)cc1S(=O)(=O)Nc1cccc(-c2ccc3c(-c4ncc[nH]4)n[nH]c3c2Cl)c1F [Example 18, N-(3-(7-Chloro-3-(1H-imidazol-2-yl)-1H-indazol-6-yl)-2-fluorophenyl)-5-fluoro-2-methoxypyridine-3-sulfonamide] | 0.5 to 2.5 | 
COc1ncc(F)cc1S(=O)(=O)Nc1ncc(F)c(-c2ccc3c(-c4ncc[nH]4)n[nH]c3c2F)c1F [Example 28, N-(3,5-Difluoro-4-(7-fluoro-3-(1H-imidazol-2-yl)-1H-indazol-6-yl)pyridin-2-yl)-5-fluoro-2-methoxypyridine-3-sulfonamide] | < 0.5 | 
COc1ncc(F)cc1S(=O)(=O)Nc1ncc(F)c(-c2ccc3c(C(N)=O)n[nH]c3c2F)c1F [Example 3M, 6-(3,5-difluoro-2-((5-fluoro-2-methoxypyridine)-3-sulfonamido)pyridin-4-yl)-7-fluoro-1H-indazole-3-carboxamide] | > 10 | 
COc1ncc(F)cc1S(=O)(=O)Nc1cccc(-c2ccc3c(C(=O)NC[C@@H](O)CO)n[nH]c3c2F)c1F [Example 3AX, 6-(2-fluoro-3-((5-fluoro-2-methoxypyridine)-3-sulfonamido)phenyl)-N-((R)-2,3-dihydroxypropyl)-7-fluoro-1H-indazole-3-carboxamide] | 0.5 to 2.5 | 
COc1ncc(C#N)cc1S(=O)(=O)Nc1cc(F)cc(-c2ccc3c(-c4ncc[nH]4)n[nH]c3c2F)c1F [Example 3BV, 5-cyano-N-(2,5-difluoro-3-(7-fluoro-3-(1H-imidazol-2-yl)-1H-indazol-6-yl)phenyl)-2-methoxypyridine-3-sulfonamide] | < 0.5 | 
Cc1ncc(F)cc1S(=O)(=O)Nc1ncc(F)c(-c2ccc3c(-c4ncc[nH]4)n[nH]c3c2F)c1F [Example 3F, N-(3,5-difluoro-4-(7-fluoro-3-(1H-imidazol-2-yl)-1H-indazol-6-yl)pyridin-2-yl)-5-fluoro-2-methylpyridine-3-sulfonamide] | < 0.5 | 
O=S(=O)(Nc1ccc(F)c(-c2ccc3c(-c4ncc[nH]4)n[nH]c3c2F)c1F)c1ccccc1 [Example 2BV, N-(2,4-difluoro-3-(7-fluoro-3-(1H-imidazol-2-yl)-1H-indazol-6-yl)phenyl)benzene-sulfonamide] |  | 0.5 to 2.5
O=S(=O)(Nc1ccc(F)c(-c2ccc3c(-c4ncc[nH]4)n[nH]c3c2F)c1F)c1cccc(Cl)c1Cl [Example 2BL, 2,3-dichloro-N-(2,4-difluoro-3-(7-fluoro-3-(1H-imidazol-2-yl)-1H-indazol-6-yl)phenyl)-benzenesulfonamide] |  | < 0.5
COc1ncc(Cl)cc1S(=O)(=O)Nc1ncc(F)c(-c2ccc3c(-c4ncc[nH]4)n[nH]c3c2F)c1F [Example 6, 5-Chloro-N-(3,5-difluoro-4-(7-fluoro-3-(1H-imidazol-2-yl)-1H-indazol-6-yl)pyridin-2-yl)-2-methoxypyridine-3-sulfonamide] |  | < 0.5
